Test results as given in patent US20220170930A1, “METHOD FOR SCREENING COMPOUND FOR TREATING OR PREVENTING POLYQ-RELATED NEURODEGENERATIVE DISEASES” (FUDAN UNIVERSITY, priority 2019, published 2022).
Structures can show the parent of a compound that is named as a salt.

What was measured:
[1] = test system: mHTT; assay: HTRF mHTT level in HD patient immortalized fibroblasts; details: for mHTT level: c-Raf inhibitors and KSP inhibitors at 100 nM; for mHTT levels, comparison of FIG. 9: concentrations below the micromolar level
Method: Homogeneous time-resolved fluorescence (HTRF) analysis: the cell or tissue lysate was diluted with the original lysis buffer PBS+1% (v/v) Triton X-100+1×cOmplete™ protease inhibitor to lyse the sample, then HTRF assay buffer (50 mM NaH2PO4, 400 mM NaF, 0.1% BSA, 0.05% (v/v) Tween-20, 1% (v/v) Triton X-100, pH 7.4) was used to dilute the specified antibody pair for detection.
The immortalized fibroblasts of HD patients were treated using the above-mentioned c-Raf inhibitors and KSP inhibitors respectively at a concentration of 100 nM.

[2] = test system: mHTT; assay: Intracerebroventricular injection, mHTT and wtHTT in cortices of HD mice; type: in vivo, mouse; details: mouse, in vivo
Method: Experimental animals: Hdh^Q140/Q7 mice (3 months old), 4 in each group.
Each test includes three repetitions for each sample, and the mean values was calculated (FIG. 16).

[3] = test system: SQSTM1/p62; assay: SQSTM1/p62 level in mouse cortices after ip injection; type: in vivo; details: HD mice
Method: Using a method similar to 6.2, Hdh^Q140/Q7 mice were administered with injections. A method similar to 7.1 was used to detect the effects of ip-injection of compounds on other known autophagy selective substrate proteins (SQSTM1/p62) in the cortical tissue of Hdh^Q140/Q7 mice.

[4] = test system: Q25-GFP; assay: OI-RD affinity screening with Q25-GFP; type: binding; details: OI-RD difference images
From the text: (1) PolyQ-GFP cDNA sequence (expressing Met-polyQ-GFP, wherein polyQ was Q72 or Q25) was synthesized de novo and subcloned into pcDNA vector. […] And the same method was used to obtain cells expressing Q53-GFP, cells expressing Q46-GFP, and cells expressing Q38-GFP.

[5] = test system: GFP; assay: OI-RD affinity screening with GFP; type: binding; details: OI-RD difference images
Method: (§1) To identify compound(s) that can selectively bind to proteins containing expanded polyglutamine, screening was conducted using a method similar to 1.1, except for that the target protein HTTexon1-Q72-MBP in step (1) of 1.1 was replaced with the polyQ-GFP protein prepared in 10.1, and the target protein HTTexon1-Q25-MBP in step (2) of 1.1 was replaced with GFP.

[6] = test system: proteins with expanded polyglutamine (polyQ-GFP); assay: OI-RD affinity screening with polyQ-GFP proteins; type: binding; details: OI-RD difference images
Method: as §1

[7] = test system: polyQ-GFP (Q72-GFP, Q25-GFP); assay: polyQ-GFP level in HEK293T cells by Incucyte fluorescence counting; type: cell-based; details: Q72-GFP vs Q25-GFP expressing HEK293T cells, 100 nM compound 1, 100 nM compound 3 or 50 nM compound 4, 2 days
From the text: (1) PolyQ-GFP cDNA sequence (expressing Met-polyQ-GFP, wherein polyQ was Q72 or Q25) was synthesized de novo and subcloned into pcDNA vector. It was transfected into HEK293T cells (ATCC, CRL-3216) through forward transfection to obtain Q72-GFP expressing cells and Q25-GFP expressing cells, respectively. And the same method was used to obtain cells expressing Q53-GFP, cells expressing Q46-GFP, and cells expressing Q38-GFP.
The Q72-GFP expressing cells and Q25-GFP expressing cells obtained in step (1) of 10.1 were used. […] Then the level of polyQ-GFP was measured by Incucyte fluorescence counting (FIG. 25).

[8] = biological target: T1, MBP-ATXN3-Q28 (Homo sapiens, UniProt P54252, INS305QQQQQQQQQQQQQQQQQQ); assay: OI-RD affinity screening with MBP-ATXN3-Q28; type: binding; details: OI-RD difference images
T1 construct: His8 with TEV protease cleavage site; made in house; host or cells: Escherichia coli Rosetta(DE3)pLsyS
T1 sequence (P54252 with tags, fused parts or gaps isoform P54252-4 with the stated changes): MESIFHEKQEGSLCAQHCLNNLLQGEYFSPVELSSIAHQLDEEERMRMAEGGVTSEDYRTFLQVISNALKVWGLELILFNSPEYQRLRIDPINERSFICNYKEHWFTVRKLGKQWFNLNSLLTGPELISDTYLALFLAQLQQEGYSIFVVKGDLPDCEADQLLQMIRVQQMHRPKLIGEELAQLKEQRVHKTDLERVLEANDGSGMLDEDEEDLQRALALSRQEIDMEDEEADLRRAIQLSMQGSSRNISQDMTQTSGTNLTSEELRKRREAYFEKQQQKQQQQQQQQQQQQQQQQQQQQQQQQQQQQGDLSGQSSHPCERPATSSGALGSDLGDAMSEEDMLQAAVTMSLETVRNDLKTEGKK
Method: (§2) Screening was conducted using a method similar to 1.1, except for that the target protein HTTexon1-Q72-MBP in step (1) of 1.1 was replaced with MBP-ATXN3-Q68 and the target protein HTTexon1-Q25-MBP in step (2) of 1.1 was replaced with MBP-ATXN3-Q28, to obtain compounds that can selectively bind to ATXN3 with abnormally expanded polyQ (MBP-ATXN3-Q68).

[9] = biological target: T1, MBP-ATXN3-Q28; assay: MST affinity with MBP-ATXN3-Q28; type: binding
Method: Protein concentration was 500 nM.

[10] = biological target: T2, mutant ATXN3 protein (ATXN3-Q74) (Homo sapiens, UniProt P54252, G306R/INS305QQQQQQQQQQQQQQQQQQQQQQQQQQQQQQQQQQQQQQQQQQQQQQQQQQQQQQQQQQQQQQQQ/V212M); assay: Western-blot mutant ATXN3 level in SCA3 patient fibroblasts; type: cell-based; details: 100 nM (compound 4: 50 nM), 2 days
T2 construct: endogenous in cells; host or cells: SCA3 patient fibroblasts (Q74)
T2 sequence (P54252 with tags, fused parts or gaps isoform P54252-1 with the stated changes): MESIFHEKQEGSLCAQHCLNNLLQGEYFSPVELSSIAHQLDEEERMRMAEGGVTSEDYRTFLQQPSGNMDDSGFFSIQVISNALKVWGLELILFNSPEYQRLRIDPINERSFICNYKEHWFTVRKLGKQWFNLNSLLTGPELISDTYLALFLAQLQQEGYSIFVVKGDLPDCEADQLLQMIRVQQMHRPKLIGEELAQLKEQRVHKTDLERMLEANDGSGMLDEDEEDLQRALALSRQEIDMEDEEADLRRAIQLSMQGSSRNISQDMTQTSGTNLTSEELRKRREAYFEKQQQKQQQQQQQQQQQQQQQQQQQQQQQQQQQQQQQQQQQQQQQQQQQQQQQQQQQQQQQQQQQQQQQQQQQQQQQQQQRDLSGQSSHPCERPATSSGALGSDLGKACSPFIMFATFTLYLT
Method: (§3) Then the levels of mutant ATXN3 protein (ATXN3-Q74, SEQ ID NO: 2) and wild-type ATXN3 protein (ATXN3-Q27, SEQ ID NO: 7) were determined by Western-blots (FIG. 26). […] Therefore, the compound of the present invention can be used to treat SCA3.

[11] = biological target: T3, wild-type ATXN3 protein (ATXN3-Q27) (Homo sapiens, UniProt P54252, G306R/INS305QQQQQQQQQQQQQQQQQ/V212M); assay: Western-blot wild-type ATXN3 level in fibroblasts; type: cell-based; details: 100 nM (compound 4: 50 nM), 2 days
T3 construct: endogenous in cells; host or cells: wild-type fibroblasts (Q27) and/or the normal allele in SCA3 patient fibroblasts
T3 sequence (P54252 with tags, fused parts or gaps isoform P54252-1 with the stated changes): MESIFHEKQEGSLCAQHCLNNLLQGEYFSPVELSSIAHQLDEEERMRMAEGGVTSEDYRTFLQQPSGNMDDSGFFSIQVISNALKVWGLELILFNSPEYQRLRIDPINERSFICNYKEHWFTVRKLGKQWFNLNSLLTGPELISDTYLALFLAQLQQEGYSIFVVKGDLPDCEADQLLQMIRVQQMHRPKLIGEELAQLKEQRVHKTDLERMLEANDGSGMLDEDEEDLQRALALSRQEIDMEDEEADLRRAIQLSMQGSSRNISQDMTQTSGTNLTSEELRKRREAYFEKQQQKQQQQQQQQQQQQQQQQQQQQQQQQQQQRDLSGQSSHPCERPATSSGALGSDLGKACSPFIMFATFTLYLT
Method: as §3

[12] = biological target: T4, His-ATXN1-Q92 (Homo sapiens, UniProt P54253, INS208QQQQQQQQQQQQQQQQQQQQQQQQQQQQQQQQQQQQQQQQQQQQQQQQQQQQQQQQQQQQQQQQQQQQQQQQQQQQQQQQ); assay: OI-RD affinity screening with His-ATXN1-Q92; type: binding; details: OI-RD difference images
T4 construct: made in house; host or cells: HEK293T cells (ATCC, CRL-3216)
T4 sequence (P54253 with tags, fused parts or gaps with the stated changes): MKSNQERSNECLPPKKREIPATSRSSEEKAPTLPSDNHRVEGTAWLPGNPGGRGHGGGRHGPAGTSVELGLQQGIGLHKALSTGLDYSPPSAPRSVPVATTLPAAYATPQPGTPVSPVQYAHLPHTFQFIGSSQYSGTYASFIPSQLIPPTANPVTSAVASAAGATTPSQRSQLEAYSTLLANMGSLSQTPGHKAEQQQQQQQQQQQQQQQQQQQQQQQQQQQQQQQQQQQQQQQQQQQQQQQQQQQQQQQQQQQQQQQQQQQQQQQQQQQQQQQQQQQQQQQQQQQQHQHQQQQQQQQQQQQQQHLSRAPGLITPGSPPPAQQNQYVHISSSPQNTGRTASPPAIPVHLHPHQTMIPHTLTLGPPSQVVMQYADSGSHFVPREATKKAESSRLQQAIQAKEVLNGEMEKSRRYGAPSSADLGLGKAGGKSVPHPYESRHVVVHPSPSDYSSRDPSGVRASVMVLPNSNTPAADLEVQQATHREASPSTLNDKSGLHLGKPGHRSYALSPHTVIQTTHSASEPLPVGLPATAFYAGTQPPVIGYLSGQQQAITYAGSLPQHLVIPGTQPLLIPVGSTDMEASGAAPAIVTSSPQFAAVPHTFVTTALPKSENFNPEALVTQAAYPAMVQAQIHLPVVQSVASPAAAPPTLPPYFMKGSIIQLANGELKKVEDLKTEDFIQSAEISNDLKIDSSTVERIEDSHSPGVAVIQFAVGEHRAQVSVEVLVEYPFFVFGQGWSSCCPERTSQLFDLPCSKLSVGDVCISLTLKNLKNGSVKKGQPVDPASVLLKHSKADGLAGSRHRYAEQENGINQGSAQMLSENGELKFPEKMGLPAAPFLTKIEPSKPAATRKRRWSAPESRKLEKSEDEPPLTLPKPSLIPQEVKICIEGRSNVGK
Method: (1) PolyQ-ATXN1 cDNA (where polyQ is Q92) was synthesized de novo and subcloned into pcDNA vector. It transfected into HEK293T cells (ATCC, CRL-3216) to obtain cells expressing His-ATXN1-Q92 (SEQ ID NO: 3 with a His tag at the N-terminal).
(2) The His-ATXN1-Q92 expressed in (1) was purified to obtain ATXN1 with abnormally expanded polyQ.
To identify compound(s) that can bind to ATXN1 with abnormally expanded polyQ, screening was conducted using a method similar to step (1) of 1.1, except for that the target protein HTTexon1-Q72-MBP in step (1) of 1.1 was replaced with His-ATXN1-Q92.

[13] = biological target: T5, mutant ATXN1 protein (His-ATXN1-Q92) (Homo sapiens, UniProt P54253, INS208QQQQQQQQQQQQQQQQQQQQQQQQQQQQQQQQQQQQQQQQQQQQQQQQQQQQQQQQQQQQQQQQQQQQQQQQQQQQQQQQ); assay: HTRF mutant ATXN1 level in His-ATXN1-Q92-expressing cells; type: cell-based; details: 100 nM, 2 days, anti-His-Tb/MW1-D2
T5 construct: expressed in transfected cells; host or cells: HEK293T cells (ATCC, CRL-3216)
T5 sequence (P54253 with tags, fused parts or gaps with the stated changes): as the sequence (P54253 with tags, fused parts or gaps with the stated changes) above

[14] = in vivo; details: mouse, ip, 0.5 mg/kg
Method: Experimental method: The compound or control DMSO was diluted with 0.9% NaCl intravenous infusion solution to 0.05 μg/μL. One ip-injection (0.5 mg/kg) was conducted per day. After 14 days of injection, tissue extraction or behavioral experiment were conducted.

[15] = test system: Q25-GFP; assay: MST affinity with Q25-GFP
Method: The affinity of the compound with full-length HTT and LC3B was verified with micro thermophoresis (MST) using Monolith NT.115 instrument from NanoTemper Technologies. The reaction buffer was 20 mM HEPES, pH 7.4, 150 mM NaCl.

[16] = biological target: MBP-ATXN3-Q68 (Homo sapiens, UniProt P54252, INS305QQQQQQQQQQQQQQQQQQQQQQQQQQQQQQQQQQQQQQQQQQQQQQQQQQQQQQQQQQ); assay: OI-RD affinity screening with MBP-ATXN3-Q68; type: binding; parameters: His8 with TEV protease cleavage site; made in house; host or cells: Escherichia coli Rosetta(DE3)pLsyS; details: OI-RD difference images
Chain of MBP-ATXN3-Q68 (P54252 with tags, fused parts or gaps isoform P54252-4 with the stated changes): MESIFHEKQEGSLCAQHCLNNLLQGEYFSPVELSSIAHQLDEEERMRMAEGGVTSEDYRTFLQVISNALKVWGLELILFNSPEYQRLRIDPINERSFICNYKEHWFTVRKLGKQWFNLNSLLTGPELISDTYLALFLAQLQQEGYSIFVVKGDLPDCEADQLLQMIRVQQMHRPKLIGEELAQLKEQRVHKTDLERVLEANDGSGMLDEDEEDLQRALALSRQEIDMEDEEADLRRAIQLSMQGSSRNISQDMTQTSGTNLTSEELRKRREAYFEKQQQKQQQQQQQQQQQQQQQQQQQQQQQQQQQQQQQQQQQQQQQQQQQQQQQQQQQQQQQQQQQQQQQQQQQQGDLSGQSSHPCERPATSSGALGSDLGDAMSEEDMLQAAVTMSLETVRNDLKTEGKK
Method: as §2

SMILES: CCCS(=O)(=O)Nc1ccc(F)c(C(=O)c2c[nH]c3ncc(Cl)cc23)c1F [PLX-4720]
- mHTT level [1]: No decrease in mHTT level was observed
- mHTT levels, comparison of FIG. 9 [1]: did not reduce mHTT levels

SMILES: CC(C)(C)c1nc(-c2cccc(NS(=O)(=O)c3c(F)cccc3F)c2F)c(-c2ccnc(N)n2)s1 [Dabrafenib]
- mHTT level [1]: No decrease in mHTT level was observed

SMILES: O=c1cc(-c2ccccc2)c2c(O)cc(O)cc2o1 [compound 4]
- mHTT level in cortices [2]: significantly reduced mHTT level
- level of SQSTM1/p62 in the cortices [3]: did not change
- binding to Q25-GFP [4]: did not bind
- binding to GFP [5]: did not bind
- binding affinity to proteins with 38 or more glutamine repeats [6]: showed certain binding affinity
- level of proteins containing expanded polyglutamine in cells (polyQ-GFP) [7]: can selectively reduce the level
- binding to MBP-ATXN3-Q28 [8]: did not bind
- binding affinity with normal ATXN3 protein (MBP-ATXN3-Q28) [9]: no binding affinity
- mutant ATXN3 protein level [10]: A decrease in mutant ATXN3 protein level was observed
- wild-type ATXN3 protein level [11]: no decrease in wild-type ATXN3 protein level was observed
- binding to His-ATXN1-Q92 [12]: can bind
- level of mutant ATXN1 protein (His-ATXN1-Q92) [13]: Decreased levels of mutant ATXN1 were observed
- concentration at 2 h [14]: 9.48 ng/g
- binding affinity to Q25-GFP [15]: no binding affinity
- mHTT levels, comparison of FIG. 9 [1]: reduces mHTT levels
- binding to MBP-ATXN3-Q68 [16]: binded

SMILES: COc1ccc(Oc2cc(NCCC(F)(F)F)c3ncc(-c4ccc(C(=O)NC5CC5)c(C)c4)n3n2)c(F)c1F [BAY1217389]
- mHTT level [1]: No decrease in mHTT level was observed
- mHTT levels, comparison of FIG. 9 [1]: did not reduce mHTT levels

SMILES: CNC(=O)c1cc(Oc2ccc(NC(=O)Nc3ccc(Cl)c(C(F)(F)F)c3)cc2)ccn1 [Sorafenib Tosylate]
- mHTT level [1]: No decrease in mHTT level was observed

SMILES: CC(C)Oc1ccc(C(=O)N[C@H](CNC(=O)CN(C)C)Cc2ccc(-c3cn4cccc([C@H](C)O)c4n3)cc2)cc1Cl [GSK923295]
- mHTT level [1]: No decrease in mHTT level was observed
